In patent publication US9980943B2, “Methods of treating muscular dystrophy” (BOARD OF REGENTS OF THE NEVADA SYSTEM OF HIGHER EDUCATION, …, priority 2013, dated 2018):

Experiments:
Assay type in all cases: cell-based, mouse
[1] = test system: α7 integrin (LacZ reporter in α7+/LacZ myotubes); test: Myotube α7 integrin FDG assay (Burkin assay in myotubes, 96-well); details: for Burkin Assay in Myotubes, value relative to DMSO: SU9516 analogs, 96-well, N=3-6
[2] = test system: β-galactosidase in CMV-LacZ C2C12 myotubes; test: CMV-LacZ secondary screen in C2C12 myotubes (β-Gal stabilizing assay); details: for CMV-LACZ in Myotubes, value relative to DMSO: SU9516 analogs, C2C12 CMV-LacZ, N=2; for CMV-LACZ in Myotubes, signal relative to DMSO: C2C12 CMV-LacZ myotubes, fold relative to DMSO
How it was run: (§1)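 β-Gal level was the read-out, measured in a clonal C2C12 line expressing LacZ from a CMV promoter. Dose-response curves used six concentrations, 0.5 μM up to 40 μM, with duplicate points.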

[3] = test system: α7 integrin (LacZ reporter in α7βgal+/− myoblasts); test: Myoblast α7+/LacZ integrin FDG assay (Burkin assay in myoblasts, 96-well); details: 96-well; for Burkin Assay in Myoblasts, value relative to DMSO: SU9516 analogs, N=3-6; for Burkin Assay in Myoblasts, signal relative to DMSO: α7+/LacZ myoblasts
[4] = test system: β-galactosidase in CMV-LacZ C2C12 myoblasts; test: CMV-LacZ secondary screen in C2C12 myoblasts (β-Gal stabilizing assay); details: for CMV-LACZ in Myoblasts, value relative to DMSO: SU9516 analogs, C2C12 CMV-LacZ, N=2; for CMV-LACZ in Myoblasts (β-galactosidase activity relative to DMSO): CMV-LacZ C2C12 myoblasts
How it was run: as §1

## CCO/C(C)=C1\C(=O)Nc2ccccc21 [MLS000554109-01]
[1]; 0.5 uM
  Burkin Assay in Myotubes, value relative to DMSO: 0.8839
[1]; 1 uM
  Burkin Assay in Myotubes, value relative to DMSO: 1.054
[1]; 5 uM
  Burkin Assay in Myotubes, value relative to DMSO: 0.9611
[1]; 10 uM
  Burkin Assay in Myotubes, value relative to DMSO: 0.9874
[1]; 20 uM
  Burkin Assay in Myotubes, value relative to DMSO: 0.8426
[1]; 40 uM
  Burkin Assay in Myotubes, value relative to DMSO: 1.048
[2]; 0.5 uM
  CMV-LACZ in Myotubes, value relative to DMSO: 1.2682
[2]; 1 uM
  CMV-LACZ in Myotubes, value relative to DMSO: 0.9491
[2]; 5 uM
  CMV-LACZ in Myotubes, value relative to DMSO: 1.1559
[2]; 10 uM
  CMV-LACZ in Myotubes, value relative to DMSO: 1.1355
[2]; 20 uM
  CMV-LACZ in Myotubes, value relative to DMSO: 0.9100
[2]; 40 uM
  CMV-LACZ in Myotubes, value relative to DMSO: 0.9950
[3]; 0.5 uM
  Burkin Assay in Myoblasts, value relative to DMSO: 0.9929
[3]; 1 uM
  Burkin Assay in Myoblasts, value relative to DMSO: 1.049
[3]; 5 uM
  Burkin Assay in Myoblasts, value relative to DMSO: 1.067
[3]; 10 uM
  Burkin Assay in Myoblasts, value relative to DMSO: 1.095
[3]; 20 uM
  Burkin Assay in Myoblasts, value relative to DMSO: 0.9611
[3]; 40 uM
  Burkin Assay in Myoblasts, value relative to DMSO: 0.8937
[4]; 0.5 uM
  CMV-LACZ in Myoblasts, value relative to DMSO: 1.1083
[4]; 1 uM
  CMV-LACZ in Myoblasts, value relative to DMSO: 1.1863
[4]; 5 uM
  CMV-LACZ in Myoblasts, value relative to DMSO: 0.9003
[4]; 10 uM
  CMV-LACZ in Myoblasts, value relative to DMSO: 0.9457
[4]; 20 uM
  CMV-LACZ in Myoblasts, value relative to DMSO: 0.9853
[4]; 40 uM
  CMV-LACZ in Myoblasts, value relative to DMSO: 0.9650

## c1ccc(-c2cc(-c3nc4ccccc4[nH]3)c3ccccc3n2)cc1 [MLS000554416-01]
[1]; 0.5 uM
  Burkin Assay in Myotubes, α7 integrin LacZ reporter signal relative to DMSO: 0.9146
[1]; 1 uM
  Burkin Assay in Myotubes, α7 integrin LacZ reporter signal relative to DMSO: 0.9261
[1]; 5 uM
  Burkin Assay in Myotubes, α7 integrin LacZ reporter signal relative to DMSO: 0.8366
[1]; 10 uM
  Burkin Assay in Myotubes, α7 integrin LacZ reporter signal relative to DMSO: 0.9334
[1]; 20 uM
  Burkin Assay in Myotubes, α7 integrin LacZ reporter signal relative to DMSO: 0.6816
[1]; 40 uM
  Burkin Assay in Myotubes, α7 integrin LacZ reporter signal relative to DMSO: 0.4915
[2]; 0.5 uM
  CMV-LACZ in Myotubes, signal relative to DMSO: 1.0019
[2]; 1 uM
  CMV-LACZ in Myotubes, signal relative to DMSO: 0.9629
[2]; 5 uM
  CMV-LACZ in Myotubes, signal relative to DMSO: 0.8969
[2]; 10 uM
  CMV-LACZ in Myotubes, signal relative to DMSO: 0.9798
[2]; 20 uM
  CMV-LACZ in Myotubes, signal relative to DMSO: 0.8760
[2]; 40 uM
  CMV-LACZ in Myotubes, signal relative to DMSO: 0.7060
[3]; 0.5 uM
  Burkin Assay in Myoblasts, signal relative to DMSO: 1.211
[3]; 1 uM
  Burkin Assay in Myoblasts, signal relative to DMSO: 1.0679
[3]; 5 uM
  Burkin Assay in Myoblasts, signal relative to DMSO: 0.9915
[3]; 10 uM
  Burkin Assay in Myoblasts, signal relative to DMSO: 0.9591
[3]; 20 uM
  Burkin Assay in Myoblasts, signal relative to DMSO: 1.087
[3]; 40 uM
  Burkin Assay in Myoblasts, signal relative to DMSO: 0.8248
[4]; 0.5 uM
  CMV-LACZ in Myoblasts (β-galactosidase activity relative to DMSO): 1.1310
[4]; 1 uM
  CMV-LACZ in Myoblasts (β-galactosidase activity relative to DMSO): 1.3983
[4]; 5 uM
  CMV-LACZ in Myoblasts (β-galactosidase activity relative to DMSO): 0.8594
[4]; 10 uM
  CMV-LACZ in Myoblasts (β-galactosidase activity relative to DMSO): 1.1123
[4]; 20 uM
  CMV-LACZ in Myoblasts (β-galactosidase activity relative to DMSO): 1.1077
[4]; 40 uM
  CMV-LACZ in Myoblasts (β-galactosidase activity relative to DMSO): 0.8611

## O=C(Nc1cc(-c2nc3ccccc3s2)ccc1Cl)c1ccc2c(c1)OCO2 [MLS000560266-01]
[1]; 0.5 uM
  Burkin Assay in Myotubes, α7 integrin LacZ reporter signal relative to DMSO: 0.9891
[1]; 1 uM
  Burkin Assay in Myotubes, α7 integrin LacZ reporter signal relative to DMSO: 0.8824
[1]; 5 uM
  Burkin Assay in Myotubes, α7 integrin LacZ reporter signal relative to DMSO: 1.037
[1]; 10 uM
  Burkin Assay in Myotubes, α7 integrin LacZ reporter signal relative to DMSO: 1.185
[1]; 20 uM
  Burkin Assay in Myotubes, α7 integrin LacZ reporter signal relative to DMSO: 0.6706
[1]; 40 uM
  Burkin Assay in Myotubes, α7 integrin LacZ reporter signal relative to DMSO: 0.6059
[2]; 0.5 uM
  CMV-LACZ in Myotubes, signal relative to DMSO: 0.9724
[2]; 1 uM
  CMV-LACZ in Myotubes, signal relative to DMSO: 1.0000
[2]; 5 uM
  CMV-LACZ in Myotubes, signal relative to DMSO: 1.0253
[2]; 10 uM
  CMV-LACZ in Myotubes, signal relative to DMSO: 1.0224
[2]; 20 uM
  CMV-LACZ in Myotubes, signal relative to DMSO: 1.0520
[2]; 40 uM
  CMV-LACZ in Myotubes, signal relative to DMSO: 0.9470
[3]; 0.5 uM
  Burkin Assay in Myoblasts, signal relative to DMSO: 0.953
[3]; 1 uM
  Burkin Assay in Myoblasts, signal relative to DMSO: 0.8556
[3]; 5 uM
  Burkin Assay in Myoblasts, signal relative to DMSO: 1.026
[3]; 10 uM
  Burkin Assay in Myoblasts, signal relative to DMSO: 1.13
[3]; 20 uM
  Burkin Assay in Myoblasts, signal relative to DMSO: 0.8321
[3]; 40 uM
  Burkin Assay in Myoblasts, signal relative to DMSO: 0.5589
[4]; 0.5 uM
  CMV-LACZ in Myoblasts (β-galactosidase activity relative to DMSO): 0.9030
[4]; 1 uM
  CMV-LACZ in Myoblasts (β-galactosidase activity relative to DMSO): 0.8123
[4]; 5 uM
  CMV-LACZ in Myoblasts (β-galactosidase activity relative to DMSO): 0.9405
[4]; 10 uM
  CMV-LACZ in Myoblasts (β-galactosidase activity relative to DMSO): 0.9991
[4]; 20 uM
  CMV-LACZ in Myoblasts (β-galactosidase activity relative to DMSO): 1.1095
[4]; 40 uM
  CMV-LACZ in Myoblasts (β-galactosidase activity relative to DMSO): 1.0484
